Data on one substance can be found in publication PMC7618104, “The GLP-1 analogue, exendin-4, improves bone material properties and strength through a central relay in ovariectomized mice” (American journal of physiology. Endocrinology and metabolism, 2025).

In test [1] the test system is mouse bone marrow-derived mesenchymal stem cell (BMMSC) cultures. Briefly: Bone marrow-derived mesenchymal stem cell osteogenic differentiation. The class given is cell-based, mouse (BALB/cJRj). To be noted: 1 nM exendin-4, osteogenic medium, n = 5 independent experiments. As for the experimental part: Femurs and tibias were isolated from 12-week-old female BALB/c mice (BALB/cJRj; Janvier Labs, Saint-Berthevin, France). Bones were rapidly dissected and cleared of soft tissue. The distal epiphyses were removed, and the marrow cavities were flushed with sterile PBS to collect bone marrow cells. Cells were suspended in growth medium composed of α-MEM supplemented with 10% fetal bovine serum, 100 U/mL penicillin-streptomycin, and 0.25 μL/mL Fungizone (Thermo Fisher Scientific), and seeded into 6-well plates at a density of 2.5 × 10^6 cells/well. Cultures were maintained at 37°C in a humidified incubator with 5% CO2. Cells remained undisturbed for 5 days to promote adherence. […]
On day 14, cells were washed with PBS and subjected to three freeze-thaw cycles. […] Enzymatic activity was measured using the fluorescent substrate 4-methylumbelliferyl phosphate (Sigma-Aldrich) as previously described ([38]).
On day 21, cells were fixed with 3.7% (w/v) formaldehyde in PBS for 10 min, rinsed with PBS, and stained with 1.5% (w/v) Alizarin Red S for 5 min. […] Bound dye was extracted using 10% acetic acid, neutralized with 10% ammonium hydroxide, and absorbance was measured at 550 nm using a spectrophotometer. […]

Test [2] concerns ovariectomized BALB/c mice. Briefly: Bone histomorphometry at the proximal tibia metaphysis. In kind it is in vivo, mouse (BALB/cJRj, female). To be noted: 28 days, n=8; for BFR/BS / MAR / MS/BS / O.Th / OS/BS / N.Oc/B.Pm / Oc.S/BS: mean ± SD; for N.Oc/B.Pm / Oc.S/BS: p<0.001 vs. OVX+Vehicle. As for the experimental part: Eight animals were randomly assigned to each group.
All animals received intraperitoneal administration of calcein green (10 mg/kg) 10 days and 2 days before sacrifice. Animals were housed in social groups and maintained in a 12 h:12 h light/dark cycle. They had free access to water and food. At necropsy, blood was collected by intracardiac aspiration into EDTA-treated tubes. Blood samples were centrifuged at 13,000 g for 15 min, aliquoted and stored at -80°C until plasma levels of exendin-4 (#EK-070-94, Phoenix pharmaceuticals, Burlingame, CA) and calcitonin (NBP3-06734, Bio-Techne Ltd, Abingdon, UK) were measured according to the manufacturer’s protocol. Plasma levels of the bone remodeling markers C-terminal telopeptide of collagen type I (CTx-I – RatLaps, Immunodiagnostic Systems Ltd, Boldon, UK) and N-terminal propeptide of type I collagen (P1NP - Rat/mouse P1NP, Immunodiagnostic Systems Ltd) were measured according to the manufacturers’ recommendation. Right femurs were wrapped in saline-soaked gauze and frozen at -20°C until use. Right tibiae were fixed in ethanol-based fixative and stored at 4°C until use. No specific inclusion or exclusion criteria were applied for animal selection. […] Additionally, correct implantation of the cerebral perfusion cannulas for icv-administered animals was verified at necropsy. All animals meeting these criteria were included in the study.
After microCT, right tibias were embedded undecalcified in polymethylmethacrylate (pMMA) at 4°C as previously reported ([32]). Seven micron-thick sections were made with a sledge microtome (Polycut S, Leica, Nanterre, France) prior to histoenzymatic detection of TRAP or Goldner trichrome staining. Dynamic histomorphometry was perfomed after counterstaining the bone matrix with calcein blue. All histomorphometrical parameters were measured with an in-house written application developed in Matlab R2023b (The Mathworks, Natick, CA, RRID:SCR_001622) according to guidelines and nomenclature proposed by the American Society for Bone and Mineral Research ([33]).

The mark [3] stands for this setting: icv Ex-4 70 pmol/day, vs OVX+vehicle, p<0.001.

For the substance exendin-4 [Ex-4], the “alkaline phosphatase (ALP) activity” value in test [1] (day 14) was “did not result in any significant increase”. The “extracellular matrix mineralization (Alizarin Red S)” value in test [1] (day 21) is given as “did not result in any significant increase”. In test [2] (OVX + Ex-4, icv 70 pmol/day), the BFR/BS amounted to 0.282 ± 0.065 μm^3/μm^2/day, the MAR worked out at 2.17 ± 0.41 μm/day, the MS/BS was determined as 12.9 ± 1.2% and the O.Th was 4.7 ± 0.7 μm. For the same substance, in test [2] (OVX + Ex-4, icv 70 pmol/day), the OS/BS was 3.0 ± 2.2%, the N.Oc/B.Pm is listed as 1.01 ± 0.27 ^*** mm^-1 and the Oc.S/BS is given as 0.96 ± 0.27 %. For the same substance, in test [2] (OVX + Ex-4, s.c. ~700 pmol/day), the BFR/BS stood at 0.301 ± 0.059 μm^3/μm^2/day, the MAR was 2.30 ± 0.35 μm/day, the MS/BS is given as 13.0 ± 1.3% and the O.Th is given as 4.8 ± 0.8 μm. In test [2] (OVX + Ex-4, s.c. ~700 pmol/day), the OS/BS was 2.4 ± 1.0%, the N.Oc/B.Pm came to 1.11 ± 0.26 and the Oc.S/BS was 0.99 ± 0.28 %. In test [2] (setting [3]), the “change in number of osteoclasts” value is reported as -51% and the “change in osteoclast surfaces” value is -45%. Besides, the “change in number of osteoclasts and osteoclast surfaces” value in test [2] (s.c. Ex-4 ~700 pmol/day, vs OVX+vehicle, p<0.001) is recorded as -41%.
